According to patent US9670261B2 (Sanofi, priority 2012, dated 2017):
*1 amine or outer side, *2 acyl side, *3 side chain or, on linkers, in order; H or OH if unused. Where a SMILES comes first, the peptide text is derived from it. Side-chain parts run from the residue outwards. [ ]: non-standard residue; d: D form. The star is where a group is joined. γGlu = O=C(O)[C@H](CCC(=O)[*:2])N[*:1]; Palmitoyl = CCCCCCCCCCCCCCCC(=O)*; Aib = CC(C)(N)C(=O)O

Experiments:
[1] = test system: female leptin-receptor deficient diabetic db/db mice; test: Blood glucose and HbA1c in leptin-receptor deficient diabetic db/db mice (method 3); type: in vivo; conditions: single 100 μg/kg s.c., fed db/db mice
From the text: Female BKS.Cg-m+/+Leprdb/J (db/db) and BKS.Cg-m+/+Leprdb/+(lean control) mice were obtained from Charles River Laboratories, Germany, at an age of 9-10 weeks. The animals were housed in groups in a specific pathogen-free barrier facility on a 12-h light/dark cycle with free access to water and rodent-standard chow. After 1 week of acclimatization, blood samples were drawn from the tail without anaesthesia and blood glucose (method: d-glucose hexokinase, hemolysate, AU640 Beckman Coulter) and HbA1c level (method: hemolysate, Cobas6000 c501, Roche Diagnostics, Germany) were determined. […] The volume of administration was 5 mL/kg. The animals had access to water and chow during the experiment, food consumption was determined at all time points of blood sampling. […] Blood sampling was performed by tail incision without anaesthesia. […] At the end of the study, blood samples (tail, no anaesthesia) were analyzed for glucose and HbA1c. […] Statistical analyses were performed with Everstat 6.0 by repeated measures two-way ANOVA and Dunnett's post-hoc analyses. Differences versus vehicle-treated db/db control mice were considered statistically significant at the p<0.05 level. […] At predefined time points, more blood samples were taken to measure blood glucose and generate the blood glucose profile over 24 h. […] Blood glucose and HbA1c were determined before start of treatment and at the end of the study after 4 weeks of treatment. […] Before treatment started, no significant differences in blood glucose levels could be detected between db/db groups, only the lean control animals had significant lower glucose levels. During the 4 weeks of treatment, glucose levels increased in the vehicle-treated db/db control group, indicating a worsening of the diabetic situation.

[2] = in vivo; conditions: mouse, sc, 1 mg/kg
Experimental: (§1) Mice were dosed 1 mg/kg subcutaneously (s.c.). The mice were sacrified and blood samples were collected after 0.25, 0.5, 1, 2, 4, 8, 16 and 24 hours post application. Plasma samples were analyzed after protein precipitation via liquid chromatography mass spectrometry (LC/MS). PK parameters and half-life were calculated using WinonLin Version 5.2.1 (non-compartment model).

[3] = physchem
[4] = molecular target: T1, human GIP receptor (Homo sapiens, UniProt P48546); test: cAMP response (HTRF) of HEK-293 cells stably expressing human GIP receptor; type: cell-based; conditions: Table 7; cAMP formation; read-out: EC50 hGIP R
T1 construct: expressed in transfected cells
T1 sequence (P48546 22-466): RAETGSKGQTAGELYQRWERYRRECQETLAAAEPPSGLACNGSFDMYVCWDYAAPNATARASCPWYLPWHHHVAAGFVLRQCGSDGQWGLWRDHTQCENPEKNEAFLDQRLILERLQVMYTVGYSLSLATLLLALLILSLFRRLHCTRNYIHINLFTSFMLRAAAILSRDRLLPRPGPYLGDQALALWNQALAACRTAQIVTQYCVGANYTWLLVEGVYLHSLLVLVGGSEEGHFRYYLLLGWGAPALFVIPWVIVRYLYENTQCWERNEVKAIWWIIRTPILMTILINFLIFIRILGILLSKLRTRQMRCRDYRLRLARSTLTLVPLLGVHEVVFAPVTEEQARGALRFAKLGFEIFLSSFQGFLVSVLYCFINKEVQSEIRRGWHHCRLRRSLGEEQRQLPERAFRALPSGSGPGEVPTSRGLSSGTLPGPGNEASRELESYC
Experimental: cAMP content of cells was determined using a kit from Cisbio Corp. (cat. no. 62AM4PEC) based on HTRF (Homogenous Time Resolved Fluorescence). For preparation, cells were split into T175 culture flasks and grown overnight to near confluency in medium (DMEM/10% FBS). Medium was then removed and cells washed with PBS lacking calcium and magnesium, followed by proteinase treatment with accutase (Sigma-Aldrich cat. no. A6964). Detached cells were washed and resuspended in assay buffer (1×HBSS; 20 mM HEPES, 0.1% BSA, 2 mM IBMX) and cellular density determined. They were then diluted to 400000 cells/ml and 25 μl-aliquots dispensed into the wells of 96-well plates. For measurement, 25 μl of test compound in assay buffer was added to the wells, followed by incubation for 30 minutes at room temperature.

[5] = test system: female NMRI-mice; test: Automated assessment of 22-hours feed intake in mice; type: in vivo; conditions: 0.1 mg/kg s.c.
Experimental: Female NMRI-mice of a body weight between 20 and 30 g were used. Mice were adapted to housing conditions for at least one week and for at least one day single-caged in the assessment equipment, when basal data were recorded simultaneously. On the study day, test product was administered subcutaneously close to the lights-off phase (12 h lights off) and assessment of feed consumption was directly started afterwards. Assessment included continued monitoring over 22 hours, while data are processed as mean over every 30 min. Repetition of this procedure over several days was possible. Restriction of assessment to 22 hours was for practical reasons to allow for reweighing of animals, refilling of feed and water and drug administration between procedures. Results could be assessed as cumulated data over 22 hours or differentiated to 30 min intervals. […] Statistical analyses were performed with Everstat 6.0 by two-way ANOVA on repeated measures and Dunnett's post-hoc analyses. Differences were considered statistically significant at the p<0.05 level. […] Lights-off phase (dark phase) started 4 hours later. […].

[6] = molecular target: T2, human glucagon receptor (Homo sapiens, UniProt P47871); test: cAMP response (HTRF) of HEK-293 cells stably expressing human glucagon receptor; type: cell-based; conditions: Table 7; cAMP formation; read-out: EC50 hGLUC R
T2 construct: expressed in transfected cells
T2 sequence (P47871 26-477): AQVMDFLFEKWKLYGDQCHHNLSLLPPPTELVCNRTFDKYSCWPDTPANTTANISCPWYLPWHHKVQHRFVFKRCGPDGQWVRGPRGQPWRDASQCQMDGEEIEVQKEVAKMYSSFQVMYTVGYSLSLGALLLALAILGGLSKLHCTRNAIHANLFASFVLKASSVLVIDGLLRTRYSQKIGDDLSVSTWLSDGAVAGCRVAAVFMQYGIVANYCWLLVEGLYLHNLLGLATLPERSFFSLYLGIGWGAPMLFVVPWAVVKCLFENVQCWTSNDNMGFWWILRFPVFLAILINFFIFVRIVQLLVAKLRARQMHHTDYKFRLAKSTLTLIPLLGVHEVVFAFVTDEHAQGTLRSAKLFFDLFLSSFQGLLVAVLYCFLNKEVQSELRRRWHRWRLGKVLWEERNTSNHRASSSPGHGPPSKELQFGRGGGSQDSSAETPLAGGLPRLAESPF

[7] = molecular target: T3, human GLP-1 receptor (Homo sapiens, UniProt P43220); test: cAMP response (HTRF) of HEK-293 cells stably expressing human GLP-1 receptor; type: cell-based; conditions: Table 7; cAMP formation; read-out: EC50 hGLP-1 R
T3 construct: expressed in transfected cells
T3 sequence (P43220 24-463): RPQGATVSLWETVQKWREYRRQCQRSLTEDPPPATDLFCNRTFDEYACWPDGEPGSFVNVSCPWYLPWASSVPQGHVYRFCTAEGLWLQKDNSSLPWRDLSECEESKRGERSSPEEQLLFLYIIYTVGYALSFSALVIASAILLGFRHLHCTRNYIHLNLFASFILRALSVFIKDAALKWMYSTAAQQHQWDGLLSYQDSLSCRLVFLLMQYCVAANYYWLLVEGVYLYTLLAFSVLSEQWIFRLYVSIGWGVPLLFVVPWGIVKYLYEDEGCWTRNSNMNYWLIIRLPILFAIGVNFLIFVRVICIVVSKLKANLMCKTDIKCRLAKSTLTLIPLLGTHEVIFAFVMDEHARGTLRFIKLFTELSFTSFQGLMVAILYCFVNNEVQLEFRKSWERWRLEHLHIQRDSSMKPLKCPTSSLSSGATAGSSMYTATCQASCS
Outline: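 Cells grown overnight in DMEM/10% FBS, detached with accutase, resuspended in HBSS with 20 mM HEPES, 0.1% BSA and 2 mM IBMX at 400000 cells/ml. Test compound added and incubated 30 minutes at room temperature; cellular cAMP then measured by HTRF.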

[8] = Pharmacokinetic testing in mice, s.c.; conditions: mouse, plasma, sc, 1 mg/kg
Experimental: as §1

Row | SMILES | blood glucose compared to db/db control mice, 24 h profile [1] | Cmax [2] | half-life [2] | solubility at 2 h ([3]; pH 4.5) | solubility at 2 h ([3]; pH 7.4) | EC50 [4] | reduction of feed intake after 22 hours [5] | EC50 [6] | EC50 [7] | Cmax [8] | half-life [8]
1 | CCCCCCCCCCCCCCCC(=O)N[C@@H](CCC(=O)NCCCC[C@H](NC(=O)[C@H](CCC(N)=O)NC(=O)[C@@H](NC(=O)[C@H](CO)NC(=O)[C@H](CC(C)C)NC(=O)[C@H](CC(=O)O)NC(=O)[C@H](CO)NC(=O)[C@@H](NC(=O)[C@H](Cc1ccccc1)NC(=O)[C@@H](NC(=O)CNC(=O)[C@H](CCC(=O)O)NC(=O)C(C)(C)NC(=O)[C@@H](N)Cc1ccc(O)cc1)[C@@H](C)O)[C@@H](C)O)[C@@H](C)CC)C(=O)N[C@@H](CC(=O)O)C(=O)N[C@@H](CCCCN)C(=O)N[C@@H](CCCNC(=N)N)C(=O)N[C@@H](C)C(=O)N[C@@H](C)C(=O)N[C@@H](CCC(N)=O)C(=O)N[C@@H](CC(=O)O)C(=O)N[C@@H](Cc1ccccc1)C(=O)N[C@H](C(=O)N[C@@H](CCC(=O)O)C(=O)N[C@@H](Cc1c[nH]c2ccccc12)C(=O)N[C@@H](CC(C)C)C(=O)N[C@@H](CCCCN)C(=O)N[C@@H](CC(N)=O)C(=O)NCC(=O)NCC(=O)N1CCC[C@H]1C(=O)N[C@@H](CO)C(=O)N[C@@H](CO)C(=O)NCC(=O)N[C@@H](C)C(=O)N1CCC[C@H]1C(=O)N1CCC[C@H]1C(=O)N1CCC[C@H]1C(=O)N[C@@H](CO)C(N)=O)[C@@H](C)CC)C(=O)O [SEQ ID NO: 12, Y-Aib-E-G-T-F-T-S-D-L-S-I-Q-K(γE-x53)-DKRAAQDFIEWLKNGGPSSGAPPPS-NH2] | significant decrease in blood glucose | 3790 ng/mL | 2.8 h | > 1000 µg/mL | > 1000 µg/mL | 0.0089 nM | 71% | – | – | – | –
2 | CCCCCCCCCCCCCCCC(=O)N[C@@H](CCC(=O)NCCCC[C@H](NC(=O)[C@H](CCC(N)=O)NC(=O)[C@@H](NC(=O)[C@H](CO)NC(=O)[C@H](CC(C)C)NC(=O)[C@H](CC(=O)O)NC(=O)[C@H](CO)NC(=O)[C@@H](NC(=O)[C@H](Cc1ccccc1)NC(=O)[C@@H](NC(=O)CNC(=O)[C@H](CCC(=O)O)NC(=O)C(C)(C)NC(=O)[C@@H](N)Cc1ccc(O)cc1)[C@@H](C)O)[C@@H](C)O)[C@@H](C)CC)C(=O)N[C@@H](CC(=O)O)C(=O)N[C@@H](CO)C(=O)N[C@@H](CCCNC(=N)N)C(=O)N[C@@H](C)C(=O)N[C@@H](C)C(=O)N[C@@H](CCC(N)=O)C(=O)N[C@@H](CC(=O)O)C(=O)N[C@@H](Cc1ccccc1)C(=O)N[C@H](C(=O)N[C@@H](CCC(=O)O)C(=O)N[C@@H](Cc1c[nH]c2ccccc12)C(=O)N[C@@H](CC(C)C)C(=O)N[C@@H](CCCCN)C(=O)N[C@@H](C)C(=O)NCC(=O)NCC(=O)N1CCC[C@H]1C(=O)N[C@@H](CO)C(=O)N[C@@H](CO)C(=O)NCC(=O)N[C@@H](C)C(=O)N1CCC[C@H]1C(=O)N1CCC[C@H]1C(=O)N1CCC[C@H]1C(=O)N[C@@H](CO)C(N)=O)[C@@H](C)CC)C(=O)O [SEQ ID NO: 22, Y-Aib-E-G-T-F-T-S-D-L-S-I-Q-K(γE-x53)-DSRAAQDFIEWLKAGGPSSGAPPPS-NH2] (H-Y[Aib]EGTFTSDLSIQK([γGlu-Palmitoyl])DSRAAQDFIEWLKAGGPSSGAPPPS-NH2) | – | – | – | – | – | – | – | 11.6 nM | – | – | –
3 | CCCCCCCCCCCCCCCC(=O)N[C@@H](CCC(=O)NCCCC[C@H](NC(=O)[C@H](CCC(N)=O)NC(=O)[C@@H](NC(=O)[C@H](CO)NC(=O)[C@H](CC(C)C)NC(=O)[C@H](CC(=O)O)NC(=O)[C@H](CO)NC(=O)[C@@H](NC(=O)[C@H](Cc1ccccc1)NC(=O)[C@@H](NC(=O)CNC(=O)[C@H](CCC(=O)O)NC(=O)C(C)(C)NC(=O)[C@@H](N)Cc1ccc(O)cc1)[C@@H](C)O)[C@@H](C)O)[C@@H](C)CC)C(=O)N[C@@H](CCC(=O)O)C(=O)N[C@@H](CCCCN)C(=O)N[C@@H](CCCNC(=N)N)C(=O)N[C@@H](C)C(=O)N[C@@H](C)C(=O)N[C@@H](CCC(N)=O)C(=O)N[C@@H](CCC(=O)O)C(=O)N[C@@H](Cc1ccccc1)C(=O)N[C@H](C(=O)N[C@@H](CCC(=O)O)C(=O)N[C@@H](Cc1c[nH]c2ccccc12)C(=O)N[C@@H](CC(C)C)C(=O)N[C@@H](CCCCN)C(=O)N[C@@H](C)C(=O)NCC(=O)NCC(=O)N1CCC[C@H]1C(=O)N[C@@H](CO)C(=O)N[C@@H](CO)C(=O)NCC(=O)N[C@@H](C)C(=O)N1CCC[C@H]1C(=O)N1CCC[C@H]1C(=O)N1CCC[C@H]1C(=O)N[C@@H](CO)C(N)=O)[C@@H](C)CC)C(=O)O [SEQ ID NO: 34, Y-Aib-E-G-T-F-T-S-D-L-S-I-Q-K(γE-x53)-EKRAAQEFIEWLKAGGPSSGAPPPS-NH2] (H-Y[Aib]EGTFTSDLSIQK([γGlu-Palmitoyl])EKRAAQEFIEWLKAGGPSSGAPPPS-NH2) | – | – | – | – | – | – | – | 11.6 nM | 0.0046 nM | 5130 ng/mL | 2.8 h
